Results from patent US8436012B2, “Imidazopyridin-2-one derivatives” (Daiichi Sankyo Company, Limited, priority 2008, dated 2013).
pIC50: −log10 of the molar value.

Key:
[1] = system: WM-266-4 cells; test: Cell Proliferation Inhibitory Test; type: cell-based; settings: Homo sapiens, 72 h, cultured three days with test compound, MTT, read-out: 50% cell proliferation inhibitory activity (GI50 value)
In short: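 Cells cultured overnight, then exposed to serially diluted compound for three days; cell amount read by MTT. GI50 solved from 100×[(T−T0)/(C−T0)]=50, with T0 the value at time of compound addition and C the untreated three-day control.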

[2] = molecular target: T1, human mTOR (Homo sapiens, UniProt P42345); test: mTOR Kinase Activity Inhibition Test; type: biochemical; settings: His-tagged mTOR (1362C), biotinylated peptide substrate, ATP, 3 hours at room temperature, fluorescence resonance energy transfer 665 nm/620 nm; read-out: IC50 value of mTOR enzyme inhibitory activity
T1 construct: the portion corresponding to 1362-2549aa at the C terminus of human mTOR; made in house
T1 sequence (P42345 1362-2549): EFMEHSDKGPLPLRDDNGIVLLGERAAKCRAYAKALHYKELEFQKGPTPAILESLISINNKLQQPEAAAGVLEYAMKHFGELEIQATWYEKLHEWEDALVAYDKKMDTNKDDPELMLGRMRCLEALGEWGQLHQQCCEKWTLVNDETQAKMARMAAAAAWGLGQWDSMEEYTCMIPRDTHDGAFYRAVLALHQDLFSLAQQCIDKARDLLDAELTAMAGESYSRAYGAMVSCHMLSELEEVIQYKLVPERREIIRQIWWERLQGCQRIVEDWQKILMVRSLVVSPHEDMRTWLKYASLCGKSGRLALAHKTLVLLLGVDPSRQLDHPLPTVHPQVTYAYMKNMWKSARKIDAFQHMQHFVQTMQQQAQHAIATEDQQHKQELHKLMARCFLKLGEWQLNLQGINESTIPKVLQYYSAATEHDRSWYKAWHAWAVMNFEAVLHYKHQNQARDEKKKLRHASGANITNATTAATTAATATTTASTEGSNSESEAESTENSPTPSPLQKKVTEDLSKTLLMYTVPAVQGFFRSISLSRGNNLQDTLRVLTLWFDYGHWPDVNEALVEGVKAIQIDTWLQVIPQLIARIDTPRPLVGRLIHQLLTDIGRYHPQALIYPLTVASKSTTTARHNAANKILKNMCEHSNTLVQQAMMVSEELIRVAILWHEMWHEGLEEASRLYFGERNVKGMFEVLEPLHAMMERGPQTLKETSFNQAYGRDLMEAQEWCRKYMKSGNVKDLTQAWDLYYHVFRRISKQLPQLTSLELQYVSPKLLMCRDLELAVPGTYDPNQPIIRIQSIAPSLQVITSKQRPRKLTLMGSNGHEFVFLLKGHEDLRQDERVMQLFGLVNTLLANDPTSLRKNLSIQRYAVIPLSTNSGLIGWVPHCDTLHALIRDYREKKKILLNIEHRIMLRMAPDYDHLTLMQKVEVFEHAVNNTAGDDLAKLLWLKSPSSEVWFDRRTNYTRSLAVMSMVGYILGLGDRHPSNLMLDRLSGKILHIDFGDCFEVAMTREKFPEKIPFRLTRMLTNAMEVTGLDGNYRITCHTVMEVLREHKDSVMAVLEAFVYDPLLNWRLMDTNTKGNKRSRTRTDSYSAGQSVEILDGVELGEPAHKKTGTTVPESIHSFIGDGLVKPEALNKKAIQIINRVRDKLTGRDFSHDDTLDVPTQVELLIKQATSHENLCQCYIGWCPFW
In short: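 Purified His-tagged human mTOR (1362–2549aa, from HEK293) was used with biotinylated peptide (8 μg/mL in enzyme solution) in HEPES pH 7.5 with 20 mM MnCl2. Compounds were diluted in 20 μM ATP solution, and the reaction ran 3 h at RT. Phospho-S6K(Thr389) HTRF was read as the 665/620 nm ratio, and IC50 came from % inhibition versus controls.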

pIC50 [2]	SMILES	GI50 [1] [nM]
> 7.30	O=c1[nH]c2ncc(-c3cnc4[nH]ccc4c3)cc2n1CC1=CCCOC1 [Example 31, 1-(5,6-Dihydro-2H-pyran-3-ylmethyl)-6-(1H-pyrrolo[2,3-b]pyridin-5-yl)-1,3-dihydro-2H-imidazo[4,5-b]pyridin-2-one]	< 3000
> 7.30	O=c1[nH]c2ncc(-c3cnc4[nH]ccc4c3)cc2n1CC1CCCOC1 (stereo not shown) [Example 32, 6-(1H-Pyrrolo[2,3-b]pyridin-5-yl)-1-(tetrahydro-2H-pyran-3-ylmethyl)-1,3-dihydro-2H-imidazo[4,5-b]pyridin-2-one]	< 3000
> 7.30	O=c1[nH]c2ncc(-c3cc(F)c4[nH]ccc4c3)cc2n1CCN1CCOCC1 [Example 33, 6-(7-Fluoro-1H-indol-5-yl)-1-(2-morpholin-4-ylethyl)-1,3-dihydro-2H-imidazo[4,5-b]pyridin-2-one]	< 3000
> 7.30	O=c1[nH]c2ncc(-c3cnc4[nH]ccc4c3Cl)cc2n1CC1CCOCC1 [Example 34, 6-(4-Chloro-1H-pyrrolo[2,3-b]pyridin-5-yl)-1-(tetrahydro-2H-pyran-4-ylmethyl)-1,3-dihydro-2H-imidazo[4,5-b]pyridin-2-one]	< 3000
> 7.30	O=c1[nH]c2ncc(-c3cnc4[nH]cc(Cl)c4c3)cc2n1CC1CCOCC1 [Example 35, 6-(3-Chloro-1H-pyrrolo[2,3-b]pyridin-5-yl)-1-(tetrahydro-2H-pyran-4-ylmethyl)-1,3-dihydro-2H-imidazo[4,5-b]pyridin-2-one]	< 3000
> 7.30	Cc1c(-c2cnc3[nH]c(=O)n(CC4CCOCC4)c3c2)cnc2[nH]ccc12 [Example 36, 6-(4-Methyl-1H-pyrrolo[2,3-b]pyridin-5-yl)-1-(tetrahydro-2H-pyran-4-ylmethyl)-1,3-dihydro-2H-imidazo[4,5-b]pyridin-2-one]	< 3000
> 7.30	Cc1c[nH]c2ncc(-c3cnc4[nH]c(=O)n(CC5CCOCC5)c4c3)cc12 [Example 37, 6-(3-Methyl-1H-pyrrolo[2,3-b]pyridin-5-yl)-1-(tetrahydro-2H-pyran-4ylmethyl)-1,3-dihydro-2H-imidazo[4,5-b]pyridin-2-one]	< 3000
> 7.30	O=c1[nH]c2ncc(-c3cnc4[nH]ccc4c3)cc2n1CC1COCCO1 (stereo not shown) [Example 38, 1-(1,4-Dioxan-2-ylmethyl)-6-(1H-pyrrolo[2,3-b]pyridin-5-yl)-1,3-dihydro-2H-imidazo[4,5-b]pyridin-2-one]	< 3000
> 7.30	O=c1[nH]c2ncc(-c3cnc4[nH]ccc4c3)cc2n1C[C@@H]1COCCO1 [Example 39, 1-[(2R)-1,4-Dioxan-2-ylmethyl]-6-(1H-pyrrolo[2,3-b]pyridin-5-yl)-1,3-dihydro-2H-imidazo[4,5-b]pyridin-2-one]	< 3000
> 7.30	O=c1[nH]c2ncc(-c3cnc4[nH]ccc4c3)cc2n1C[C@H]1COCCO1 [Example 40, 1-[(2S)-1,4-Dioxan-2-ylmethyl]-6-(1H-pyrrolo[2,3-b]pyridin-5-yl)-1,3-dihydro-2H-imidazo[4,5-b]pyridin-2-one]	< 3000
> 7.30	O=c1[nH]c2ncc(-c3cnc4[nH]cc(Cl)c4c3)cc2n1C[C@H]1COCCO1 [Example 41, 6-(3-Chloro-1H-pyrrolo[2,3-b]pyridin-5-yl)-1-[(2S)-1,4-dioxan-2-ylmethyl]-1,3-dihydro-imidazo[4,5-b]pyridin-2-one]	< 3000
> 7.30	Cc1c(-c2cnc3[nH]c(=O)n(C[C@H]4COCCO4)c3c2)cnc2[nH]ccc12 [Example 42, 1-[(2S)-1,4-Dioxan-2-ylmethyl]-6-(4-methyl-1H-pyrrolo[2,3-b]pyridin-5-yl)-1,3-dihydro-imidazo[4,5-b]pyridin-2-one]	< 3000
> 7.30	Cc1c[nH]c2ncc(-c3cnc4[nH]c(=O)n(C[C@H]5COCCO5)c4c3)cc12 [Example 43, 1-[(2S)-1,4-Dioxan-2-ylmethyl]-6-(3-methyl-1H-pyrrolo[2,3-b]pyridin-5-yl)-1,3-dihydro-imidazo[4,5-b]pyridin-2-one]	< 3000
> 7.30	Cc1nc2[nH]c(=O)n(C[C@H]3COCCO3)c2cc1-c1cnc2[nH]ccc2c1 [Example 44, 1-[(2S)-1,4-Dioxan-2-ylmethyl]-5-methyl-6-(1H-pyrrolo[2,3-b]pyridin-5-yl)-1,3-dihydro-imidazo[4,5-b]pyridin-2-one]	< 3000
> 7.30	Cc1nc2[nH]c(=O)n(C[C@H]3COCCO3)c2cc1-c1cnc2[nH]ccc2c1C [Example 45, 1-[(2S)-1,4-Dioxan-2-ylmethyl]-5-methyl-6-(4-methyl-1H-pyrrolo[2,3-b]pyridin-5-yl)-1,3-dihydro-imidazo[4,5-b]pyridin-2-one]	< 3000
> 7.30	Cc1nc2[nH]c(=O)n(C[C@H]3COCCO3)c2cc1-c1cnc2[nH]cc(Cl)c2c1 [Example 46, 6-(3-Chloro-1H-pyrrolo[2,3-b]pyridin-5-yl)-1-[(2S)-1,4-dioxan-2-ylmethyl]-5-methyl-1,3-dihydro-imidazo[4,5-b]pyridin-2-one]	< 3000
> 7.30	Cc1nc2[nH]c(=O)n(C[C@H]3COCCO3)c2cc1-c1cnc2[nH]cc(C)c2c1 [Example 47, 1-[(2S)-1,4-Dioxan-2-ylmethyl]-5-methyl-6-(3-methyl-1H-pyrrolo[2,3-b]pyridin-5-yl)-1,3-dihydro-imidazo[4,5-b]pyridin-2-one]	< 3000
> 7.30	O=c1[nH]c2ncc(-c3cnc4[nH]ccc4c3)cc2n1CCC1=CCOCC1 [Example 48, 1-[2-(3,6-Dihydro-2H-pyran-4-yl)ethyl]-6-(1H-pyrrolo[2,3-b]pyridin-5-yl)-1,3-dihydro-2H-imidazo[4,5-b]pyridin-2-one]	< 3000
> 7.30	O=c1[nH]c2ncc(-c3ccc4[nH]ccc4c3)cc2n1CCC1=CCOCC1 [Example 49, 1-[2-(3,6-Dihydro-2H-pyran-4-yl)ethyl]-6-(1H-indol-5-yl)-1,3-dihydro-2H-imidazo[4,5-b]pyridin-2-one]	< 3000
> 7.30	CC(Cn1c(=O)[nH]c2ncc(-c3cnc4[nH]ccc4c3)cc21)C1CCOCC1 (stereo not shown) [Example 50, 6-(1H-Pyrrolo[2,3-b]pyridin-5-yl)-1-[2-(tetrahydro-2H-pyran-4-yl)propyl]-1,3-dihydro-2H-imidazo[4,5-b]pyridin-2-one]	< 3000
> 7.30	O=c1[nH]c2ncc(-c3cnc4[nH]ccc4c3)cc2n1CC(F)C1CCOCC1 (stereo not shown) [Example 51, 1-[2-Fluoro-2-(tetrahydro-2H-pyran-4-yl)ethyl]-6-(1H-pyrrolo[2,3-b]pyridin-5-yl)-1,3-dihydro-2H-imidazo[4,5-b]pyridin-2-one]	< 3000
> 7.30	C[C@@H]1CN(CCn2c(=O)[nH]c3ncc(-c4ccc5[nH]ccc5c4)cc32)C[C@H](C)O1 [Example 52, 1-{2-[cis-2,6-Dimethylmorpholin-4-yl]ethyl}-6-(1H-indol-5-yl)-1,3-dihydro-2H-imidazo[4,5-b]pyridin-2-one]	< 3000
> 7.30	C[C@@H]1CN(CCn2c(=O)[nH]c3ncc(-c4cnc5[nH]ccc5c4)cc32)C[C@H](C)O1 [Example 53, 1-{2-[cis-2,6-Dimethylmorpholin-4-yl]ethyl}-6-(1H-pyrrolo[2,3-b]pyridin-5-yl)-1,3-dihydro-2H-imidazo[4,5-b]pyridin-2-one]	< 3000
> 7.30	C[C@H]1COCCN1CCn1c(=O)[nH]c2ncc(-c3cnc4[nH]ccc4c3)cc21 [Example 54, 1-{2-[(35)-3-Methylmorpholin-4-yl]ethyl}-6-(1H-pyrrolo[2,3-b]pyridin-5-yl)-1,3-dihydro-2H-imidazo[4,5-b]pyridin-2-one]	< 3000
> 7.30	O=c1[nH]c2ncc(-c3cnc4[nH]ccc4c3)cc2n1CCN1CCOCC1 [Example 55, 1-(2-Morpholin-4-ylethyl)-6-(1H-pyrrolo[2,3-b]pyridin-5-yl)-1,3-dihydro-2H-imidazo[4,5-b]pyridin-2-one]	< 3000
5.30 to 7.00	CN1CCC(Cn2c(=O)[nH]c3ncc(-c4cnc5[nH]ccc5c4)cc32)CC1 [Example 56, 1-[(1-Methylpiperidin-4-yl)methyl]-6-(1H-pyrrolo[2,3-b]pyridin-5-yl)-1,3-dihydro-2H-imidazo[4,5-b]pyridin-2-one]	3000 to 25000
7.00 to 7.30	O=c1[nH]c2ncc(-c3cnc4[nH]ccc4c3)cc2n1CCN1CCNCC1 [Example 57, 1-[2-piperazin-1-ylethyl]-6-(1H-pyrrolo[2,3-b]pyridin-5-yl)-1,3-dihydro-2H-imidazo[4,5-b]pyridin-2-one]	3000 to 25000
> 7.30	CN1CCN(CCn2c(=O)[nH]c3ncc(-c4cnc5[nH]ccc5c4)cc32)CC1 [Example 58, 1-[2-(4-Methylpiperazin-1-yl)ethyl]-6-(1H-pyrrolo[2,3-b]pyridin-5-yl)-1,3-dihydro-2H-imidazo[4,5-b]pyridin-2-one]	< 3000
> 7.30	CC(=O)N1CCN(CCn2c(=O)[nH]c3ncc(-c4cnc5[nH]ccc5c4)cc32)CC1 [Example 59, 1-[2-(4-Acetylpiperazin-1-yl)ethyl]-6-(1H-pyrrolo[2,3-b]pyridin-5-yl)-1,3-dihydro-2H-imidazo[4,5-b]pyridin-2-one]	3000 to 25000
